Where “and” joins values, the source holds several entries; their conditions need not be identical. Identical values can stand only once. No end group written: not given here.
How the values were obtained:
[1] = Cytotoxicity by CCK-8 in RD cells; type: cell-based; details: human; for viability at 24 h, 0.01 µM: 0.01 μM polypeptide; for viability at 24 h, 0.01 µM / viability at 24 h, 0.1 µM / viability at 24 h, 1 µM / viability at 24 h, 10 µM / viability at 24 h, 100 µM: untreated = 100%, read-out: Cell viability (%); for viability at 24 h, 0.1 µM: 0.1 μM polypeptide; for viability at 24 h, 1 µM: 1 μM polypeptide; for viability at 24 h, 10 µM: 10 μM polypeptide; for viability at 24 h, 100 µM: 100 μM polypeptide; for CC50 at 24 h: Table 1 summary, cell line not given, read-out: CC50
Procedure: (§1) The experiment was performed as follows. • (1) RD cells were plated in a 96-well plate at 100 μl per well. • (2) After the cells reached 70%-80% confluence, the MEM medium containing 10% serum was replaced with a MEM medium containing 2% serum. Then, polypeptide P2 was added to generate gradient concentrations of 0.01 μM, 0.1 μM, 1 μM, 10 μM, and 100 μM (final concentration), respectively. • (3) The test was performed 24 hours after the addition of the polypeptide, and 10 μl of viable cell detection reagent CCK-8 was added to each well and mixed well. • (4) The plate was incubated at 37° C. for 2 h. • (5) The absorbance value at OD450 was measured with a microplate reader.
as §1, with “P1” for “P2”, “concentrations),” for “concentration),”
(§2) RD cells were used to test the antiviral effect of polypeptide P1. When RD cells reached 80% confluence, polypeptide P1 was added at concentrations of 0 μM (control group), 0.01 μM, 0.1 μM, 1 μM, 10 μM, and 100 μM, respectively. Three parallel wells were used for each concentration. The test was carried out 24 hours later, and the cell viability was detected using the CCK-8 kit.
as §1, with “3A-TAT-EP” for “P2”, “concentrations),” for “concentration),”
as §2, with “3A-TAT-EP.” for “P1.”, “3A-TAT-EP” for “P1”
as §1, with “Then, 3A-EP-DRI or 3A-EP-PEG4-PA” for “Then, polypeptide P2”, “and 50” for “and 100”, “(final concentrations),” for “(final concentration),”
as §2, with “polypeptides 3A-EP-DRI and 3A-EP-PEG4-PA.” for “polypeptide P1.”, “3A-EP-DRI or 3A-EP-PEG4-PA” for “P1”, “50” for “100”, “kit. […]” for “kit.”

RD cells = assay: Cytotoxicity by CCK-8 in RD cells; type: cell-based; details: RD cells; for Cell viability (%): 24 h, untreated = 100%; for cytotoxicity, result in words: CCK-8, 24 h
Procedure: as §1
as §1, with “P1” for “P2”, “concentrations),” for “concentration),”
as §2
as §1, with “3A-TAT-EP” for “P2”, “concentrations),” for “concentration),”
as §2, with “3A-TAT-EP.” for “P1.”, “3A-TAT-EP” for “P1”
as §1, with “Then, 3A-EP-DRI or 3A-EP-PEG4-PA” for “Then, polypeptide P2”, “and 50” for “and 100”, “(final concentrations),” for “(final concentration),”
as §2, with “polypeptides 3A-EP-DRI and 3A-EP-PEG4-PA.” for “polypeptide P1.”, “3A-EP-DRI or 3A-EP-PEG4-PA” for “P1”, “50” for “100”, “kit. […]” for “kit.”

EV71 = assay: Anti-EV71 efficiency in RD cells, viral RNA by qRT-PCR; type: cell-based, enterovirus 71; details: 24 h, control infected without polypeptide
Procedure: • (1) RD cells were plated in five 100 mm dishes. • (2) After the cells reached 70%-80% confluence, the MEM medium containing 10% serum was replaced with a MEM medium containing 2% serum. […] When the changes were obvious, samples were collected as follows. • (4) The supernatant in the 100 mm dish was transferred into a 15 ml centrifuge tube, and centrifuged at 500 g for 5 min. • (5) The supernatant was transferred into a new 15 ml centrifuge tube, and filtered through 0.22 μm filter membrane with a 50 ml syringe. • (6) RNA was extracted from 100 μl of the supernatant obtained in step (5) and subjected to one step qRT-PCR to measure the virus titer, and the previously extracted virus RNA with known titer was handled together as a control. 3. Measure Antiviral Efficiency of Polypeptide in RD Cells. • (1) Different cells were plated in 24-well cell plates. • (2) After the cells reached 70%-80% confluence, the MEM medium containing 10% serum was replaced with a MEM medium containing 2% serum (0.5 ml/well), and 5 μl of 10^6 PFU/mL EV71 viruses per well were added. • (3) After 1 h, different polypeptides were added at a final concentration of 0.01 μM, 0.1 μM, 1 μM, 10 μM, and 50 μM, respectively. • (4) Samples were collected 24 hours after virus infection, and RNA was extracted with total RNA extraction kit as follows. • (5) The supernatant in the wells was discarded, then 350 μl of TRK Lysis Buffer was added to each well and the plate was shaken on the shaker for 5 minutes. • (6) 350 μl of 70% ethanol (DEPC-treated) was added to the well and the plate was shaken on the shaker for 5 minutes. • (7) The mixture in the well was transferred to a RNA extraction column and centrifuged at 12,000 g for 1 min. • (8) The solution collected in the recovery tube was added back to the column and centrifuged at 12,000 g for 1 min. • (9) RNA washing buffer 1 was added to the column and centrifuged at 12,000 g for 30 s. • (10) RNA washing buffer 2 was added to the column and centrifuged at 12,000 g for 1 min. • (11) Step (10) was repeated once. • (12) The column was centrifuged at 12000 g for 2 min to completely remove residual RNA washing buffer. • (13) 50 μl DEPC-treated H2O was added to the column and centrifuge at 12,000 g for 2 min. • (14) 2 μl RNA sample was used according to one step qRT-PCR kit for fluorescence quantification experiment.
RD cells added with R8 penetrating peptide (sequence: RRRRRRRR) were used as a negative control.
RD cells were used to test the antiviral effect of polypeptide P2. EV71 (MOI=0.1) was added to RD cells at 80% confluence. After 1 hour of infection, polypeptide P2 was added at concentrations of 0.01 μM, 0.1 μM, 1 μM, 10 μM, and 50 μM, respectively. The samples were collected 24 hours later, and the total RNA was extracted. The level of viral genomic RNA was detected by qRT-PCR. The cells infected with the same type virus and added with penetrating peptide R8 were used as a control group.
• (1) RD cells were plated in five 100 mm dishes. • (2) After the cells reached 70%-80% confluence, the MEM medium containing 10% serum was replaced with a MEM medium containing 2% serum. […] When the changes were obvious, samples were collected as follows. • (4) The supernatant in the 100 mm dish was transferred into a 15 ml centrifuge tube, and centrifuged at 500 g for 5 min. • (5) The supernatant was transferred into a new 15 ml centrifuge tube, and filtered through 0.22 μm filter membrane with a 50 ml syringe. • (6) RNA was extracted from 100 μl of the supernatant obtained in step (5) and subjected to one step qRT-PCR to measure the virus titer, and the previously extracted virus RNA with known titer was handled together as a control. 3. […]

Row | Compound | viability at 24 h, 0.01 µM ([1]; RD cells) | viability at 24 h, 0.1 µM ([1]; RD cells) | viability at 24 h, 1 µM ([1]; RD cells) | viability at 24 h, 10 µM ([1]; RD cells) | viability at 24 h, 100 µM ([1]; RD cells) | CC50 at 24 h [1] | Cell viability (%) (RD cells; 0.01 μM polypeptide) | Cell viability (%) (RD cells; 0.1 μM polypeptide) | Cell viability (%) (RD cells; 1 μM polypeptide) | Cell viability (%) (RD cells; 10 μM polypeptide) | Cell viability (%) (RD cells; 100 μM polypeptide) | cytotoxicity, result in words (RD cells) | Relative viral RNA amount (%) (EV71; EV71 MOI=0.1, 0.01 μM) | Relative viral RNA amount (%) (EV71; EV71 MOI=0.1, 0.1 μM) | Relative viral RNA amount (%) (EV71; EV71 MOI=0.1, 1 μM) | viability at 24 h ([1]; RD cells, Cell viability (%)) | Relative viral RNA amount (%) (EV71; EV71 MOI=0.1, 10 μM)
1 | CC[C@H](C)[C@H](NC(=O)[C@H](Cc1c[nH]c2ccccc12)NC(=O)CNC(=O)[C@H](CCC(N)=O)NC(=O)[C@H](CCC(=O)O)NC(=O)[C@H](CCCNC(=N)N)NC(=O)[C@H](CS)NC(=O)[C@H](Cc1ccc(O)cc1)NC(=O)[C@H](CCC(N)=O)NC(=O)[C@H](CCCNC(=N)N)NC(=O)[C@@H](NC(=O)[C@H](CCC(=O)O)NC(=O)[C@H](CCC(=O)O)NC(=O)CNC(=O)[C@H](CO)NC(=O)CNC(=O)[C@H](CCCNC(=N)N)NC(=O)[C@H](CCCNC(=N)N)NC(=O)[C@H](CCCNC(=N)N)NC(=O)[C@H](CCC(N)=O)NC(=O)[C@H](CCCNC(=N)N)NC(=O)[C@H](CCCNC(=N)N)NC(=O)[C@H](CCCCN)NC(=O)[C@H](CCCCN)NC(=O)[C@H](CCCNC(=N)N)NC(=O)CNC(=O)[C@@H](N)Cc1ccc(O)cc1)C(C)C)C(=O)N[C@H](C(=O)N1CCC[C@H]1C(=O)O)[C@@H](C)CC [3A-TAT-EP] | 103% | 106% | 103% | 103% | 100% | > 100 µM | 98.82% and 106.3% | 104.9% and 99.14% | 105.5% and 102.9% | 107.1% and 98.61% | 97.06% and 98.38% | not toxic to cells within 100 μM |  |  |  |  | 
2 | CCCCCCCCCCCCCCCC(=O)NCCCC[C@H](NC(=O)CCNC(=O)[C@@H]1CCCN1C(=O)[C@@H](NC(=O)[C@@H](NC(=O)[C@H](Cc1c[nH]c2ccccc12)NC(=O)CNC(=O)[C@H](CCC(N)=O)NC(=O)[C@H](CCC(=O)O)NC(=O)[C@H](CCCNC(=N)N)NC(=O)[C@H](CS)NC(=O)[C@H](Cc1ccc(O)cc1)NC(=O)[C@H](CCC(N)=O)NC(=O)[C@H](CCCNC(=N)N)NC(=O)[C@@H](NC(=O)[C@H](CCC(=O)O)NC(=O)[C@@H](N)CCC(=O)O)C(C)C)[C@@H](C)CC)[C@@H](C)CC)C(=O)O [EP-PA] |  |  |  |  |  |  |  |  |  |  |  |  | 83.07% and 76.47% and 56.74% | 79.01% and 67.55% and 53.7% | 86.29% and 75.98% and 56.91% |  | 
3 | N=C(N)NCCC[C@H](NC(=O)[C@H](CCCNC(=N)N)NC(=O)[C@H](CCCNC(=N)N)NC(=O)[C@H](CCCNC(=N)N)NC(=O)[C@H](CCCNC(=N)N)NC(=O)[C@H](CCCNC(=N)N)NC(=O)[C@H](CCCNC(=N)N)NC(=O)[C@@H](N)CCCNC(=N)N)C(=O)O [R8, reference compound] |  |  |  |  |  |  |  |  |  |  |  |  |  |  |  | 104% | 
4 | EP-CHOL: SEQ ID NO: 9, EEVRQYCREQGWIIP-AK-cholesterol (Chol) |  |  |  |  |  |  |  |  |  |  |  |  | 75.49% and 59.54% and 59.75% | 75.76% and 70.99% and 60.98% | 96.78% and 76.07% and 59.55% |  | 39.12% and 66.18% and 37.09%
5 | RRRRRRRRAISDLLAS [P1] | 103% | 106% | 103% | 103% | 100% | > 100 µM | 98.82% and 106.3% | 104.9% and 99.14% | 105.5% and 102.9% | 107.1% and 98.61% | 97.06% and 98.38% | not toxic to cells within 100 μM |  |  |  |  | 

— patent US11999806B2, “Broad-spectrum polypeptide against enterovirus and application thereof” (WUHAN INSTITUTE OF VIROLOGY, CHINESE ACADEMY OF SCIENCES, priority 2018, dated 2024)
